As usually defined, the IC50 is the concentration at which inhibition is half-maximal.

Drawing on US20250002487A1, “HETEROCYCLIC COMPOUNDS AND USES THEREOF” (Ventus Therapeutics U.S., Inc., priority 2021, published 2025), this text covers IC50 for 30 molecules.

Structures are written as SMILES.

Chain of human-cGAS (h-cGAS) (Q8N884 whole entry): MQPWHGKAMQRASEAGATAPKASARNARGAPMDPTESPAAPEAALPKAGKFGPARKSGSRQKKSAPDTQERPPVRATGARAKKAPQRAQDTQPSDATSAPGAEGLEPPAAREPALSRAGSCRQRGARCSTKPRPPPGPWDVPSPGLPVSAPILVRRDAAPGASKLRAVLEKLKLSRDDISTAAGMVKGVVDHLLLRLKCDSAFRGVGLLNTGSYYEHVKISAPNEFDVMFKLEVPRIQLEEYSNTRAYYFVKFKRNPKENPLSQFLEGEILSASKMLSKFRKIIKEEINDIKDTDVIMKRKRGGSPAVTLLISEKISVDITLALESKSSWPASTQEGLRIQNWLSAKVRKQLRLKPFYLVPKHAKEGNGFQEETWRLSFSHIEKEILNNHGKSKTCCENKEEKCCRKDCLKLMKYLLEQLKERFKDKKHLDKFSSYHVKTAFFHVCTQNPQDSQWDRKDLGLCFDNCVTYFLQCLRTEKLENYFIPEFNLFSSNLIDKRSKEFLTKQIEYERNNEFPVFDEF

This test deals with human-cGAS (h-cGAS) (Homo sapiens, UniProt Q8N884). Kind of test: hcGAS Kinase-Glo Assay. The test is classed as biochemical. The settings on record: 40 nM h-cGAS, 100 μM ATP, 100 μM GTP, 25 nM dsDNA, 3 h incubation, read-out: hcGAS potency IC50. In a few lines:
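Kinase-Glo luminescent read-out of human cGAS activity, following the published Lama et al. (2019) protocol with slightly altered conditions. Inhibition reported as IC50.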
With `Cc1ccc(-c2nnc(NC(=O)c3onc4ccccc34)s2)cc1` [Compound 29, N-(5-(p-tolyl)-1,3,4-thiadiazol-2-yl)benzo[c]isoxazole-3-carboxamide], the IC50 was no less than 1000 nM.

For `CSc1nnc(NC(=O)c2nnc(Cc3ccccc3Cl)o2)s1` [Compound 49, 5-(2-chlorobenzyl)-N-(5-(methylthio)-1,3,4-thiadiazol-2-yl)-1,3,4-oxdiazole-2-carboxamide], the IC50 was in the range of 500 to 1000 nM.

Turning to `CSc1nnc(NC(=O)c2onc3c2CN(C(=O)OC(C)(C)C)CC3)s1` [Compound 43, tert-butyl 3-((5-(methylthio)-1,3,4-thiadiazol-2-yl)carbamoyl)-6,7-dihydroisoxazolo[4,3-c]pyridine-5(4H)-carboxylate], the IC50 was no less than 1000 nM.

Take `CSc1nnc(NC(=O)c2cc(C3CC3)no2)s1` [Compound 17, 3-cyclopropyl-N-(5-(methylthio)-1,3,4-thiadiazol-2-yl)isoxazole-5-carboxamide]: the IC50 was in the range of 500 to 1000 nM.

Turning to `O=C(Nc1nnc(-c2ccccc2Cl)s1)c1onc2c(C(=O)O)cccc12` [Compound 178, 3-((5-(2-chlorophenyl)-1,3,4-thiadiazol-2-yl)carbamoyl)benzo[c]isoxazole-7-carboxylic acid], the IC50 is less than 100 nM.

For `CN(C)C(=O)c1cc(C(=O)Nc2nnc(-c3ccccc3Cl)s2)on1` [Compound 87, N5-(5-(2-chlorophenyl)-1,3,4-thiadiazol-2-yl)-N3,N3-dimethylisoxazole-3,5-dicarboxamide], the concentration for half-maximal inhibition (IC50) fell in the range of 500 to 1000 nM.

As for `CSc1nnc(NC(=O)c2cc(-c3ccc(Cl)s3)on2)s1` [Compound 95, 5-(5-chlorothiophen-2-yl)-N-(5-(methylthio)-1,3,4-thiadiazol-2-yl)isoxazole-3-carboxamide], the IC50 fell in the range of 500 to 1000 nM.

On to `CSc1nnc(NC(=O)c2cc(-c3ccc(C)cc3)no2)s1` [Compound 215, 3-(4-methylphenyl)-N-[5-(methylsulfanyl)-1,3,4-thiadiazol-2-yl]-1,2-oxazole-5-carboxamide], for which the IC50 lay in the range of 500 to 1000 nM.

Take `Nc1cc(C(=O)Nc2nnc(-c3ccccc3Cl)s2)on1` [Compound 4, 3-amino-N-(5-(2-chlorophenyl)-1,3,4-thiadiazol-2-yl)isoxazole-5-carboxamide]: the IC50 is less than 100 nM.

Consider `CSc1nnc(NC(=O)c2noc(N3CCCC(C)(C)C3)n2)s1` [Compound 100, 5-(3,3-dimethylpiperidin-1-yl)-N-(5-(methylthio)-1,3,4-thiadiazol-2-yl)-1,2,4-oxadiazole-3-carboxamide], for which the IC50 is no less than 1000 nM.

On to `CSc1nnc(NC(=O)c2cc(-c3ccccc3C)cc(=O)o2)s1` [Compound 248], for which the IC50 was 100 to 500 nM.

On to `CCCc1nnc(NC(=O)c2onc3ccccc23)s1` [Compound 20, N-(5-propyl-1,3,4-thiadiazol-2-yl)benzo[c]isoxazole-3-carboxamide], for which the IC50 is no less than 1000 nM.

For `CSc1nnc(NC(=O)c2cc(Oc3ccccc3)cc(=O)o2)s1` [Compound 202, N-(5-(methylthio)-1,3,4-thiadiazol-2-yl)-2-oxo-4-phenoxy-2H-pyran-6-carboxamide], the IC50 was in the range of 500 to 1000 nM.

Regarding `CSc1nnc(NC(=O)c2noc(N3CCCCC3)n2)s1` [Compound 101, N-[5-(methylthio)-1,3,4-thiadiazol-2-yl]-5-(piperidin-1-yl)-1,2,4-oxadiazole-3-carboxamide], the IC50 is no less than 1000 nM.

As to `NC(=O)c1cc(C(=O)Nc2nnc(-c3ccccc3Cl)s2)on1` [Compound 32, N5-(5-(2-chlorophenyl)-1,3,4-thiadiazol-2-yl)isoxazole-3,5-dicarboxamide], the IC50 was in the range of 100 to 500 nM.

For `O=C(Nc1nnc(-c2ccccc2C(F)F)s1)c1onc2ccccc12` [Compound 147, N-(5-(2-(difluoromethyl)phenyl)-1,3,4-thiadiazol-2-yl)benzo[c]isoxazole-3-carboxamide], the IC50 lay within 500 to 1000 nM.

As to `CSc1nnc(NC(=O)c2noc3c2CCc2cccnc2-3)s1` [Compound 180, N-(5-(methylthio)-1,3,4-thiadiazol-2-yl)-4,5-dihydroisoxazolo[4,5-h]quinoline-3-carboxamide], the IC50 lay within 500 to 1000 nM.

Regarding `CSc1nnc(NC(=O)c2cc(-c3cccc(C#N)c3)no2)s1` [Compound 214, 3-(3-cyanophenyl)-N-[5-(methylsulfanyl)-1,3,4-thiadiazol-2-yl]-1,2-oxazole-5-carboxamide], the IC50 is no less than 1000 nM.

For the molecule `CSc1nnc(NC(=O)c2onc3ccc(Cl)cc23)s1` [Compound 229, 5-chloro-N-[5-(methylsulfanyl)-1,3,4-thiadiazol-2-yl]-2,1-benzoxazole-3-carboxamide], the IC50 fell in the range of 500 to 1000 nM.

On to `CSc1nnc(NC(=O)c2ccnc(-c3ccccc3)c2)s1` [Compound 266, N-(5-(methylthio)-1,3,4-thiadiazol-2-yl)-2-phenylisonicotinamide], for which the IC50 is no less than 1000 nM.

With `CSc1nnc(NC(=O)c2nnn(-c3ccccc3)n2)s1` [Compound 66, N-(5-(methylthio)-1,3,4-thiadiazol-2-yl)-2-phenyl-2H-tetrazole-5-carboxamide], the IC50 lay within 500 to 1000 nM.

For `O=C(Nc1nnc(-c2ccccc2Cl)s1)c1ccnc(=O)[nH]1` [Compound 62, N-(5-(2-chlorophenyl)-1,3,4-thiadiazol-2-yl)-2-oxo-2,3-dihydropyrimidine-4-carboxamide], the IC50 was no less than 1000 nM.

In the case of `CSc1nnc(NC(=O)c2cc(-c3ccc4ccccc4c3)cc(=O)o2)s1` [Compound 245, N-(5-methylsulfanyl-1,3,4-thiadiazol-2-yl)-4-(2-naphthyl)-6-oxo-pyran-2-carboxamide], the IC50 lay within 100 to 500 nM.

As to `CSc1nsc(NC(=O)c2onc3c2ccc2cccnc23)n1` [Compound 11, N-(3-(methylthio)-1,2,4-thiadiazol-5-yl)isoxazolo[4,3-h]quinoline-3-carboxamide], the IC50 was 100 to 500 nM.

As to `O=C(Nc1nnc(-c2ccccc2Cl)s1)c1ccc(O)nn1` [Compound 56, N-(5-(2-chlorophenyl)-1,3,4-thiadiazol-2-yl)-6-hydroxypyridazine-3-carboxamide], the IC50 was in the range of 100 to 500 nM.

`CSc1nnc(NC(=O)c2onc3ccc(Cc4ccccc4)cc23)s1` [Compound 159, 5-Benzyl-N-(5-(methylthio)-1,3,4-thiadiazol-2-yl)benzo[c]isoxazole-3-carboxamide]: the IC50 lay in the range of 500 to 1000 nM.

Take `CSc1nnc(NC(=O)c2cc(-c3cccc4ccncc34)cc(=O)o2)s1` [Compound 277, 4-(isoquinolin-8-yl)-N-(5-(methylthio)-1,3,4-thiadiazol-2-yl)-2-oxo-2H-pyran-6-carboxamide]: the IC50 lay in the range of 500 to 1000 nM.

On to `O=C(NO)c1cc(C(=O)Nc2nnc(-c3ccccc3Cl)s2)on1` [Compound 90, N5-(5-(2-chlorophenyl)-1,3,4-thiadiazol-2-yl)-N3-hydroxyisoxazole-3,5-dicarboxamide], for which the IC50 is 100 to 500 nM.

For the molecule `N#Cc1nnc(NC(=O)c2onc3c2ccc2cccnc23)s1` [Compound 9, N-(5-cyano-1,3,4-thiadiazol-2-yl)isoxazolo[4,3-h]quinoline-3-carboxamide], the IC50 fell in the range of 100 to 500 nM.

As for `CSc1nnc(NC(=O)c2nnc(N3CCC[C@H]3c3ccccc3)o2)s1` [Compound 126, (S)-N-(5-(methylthio)-1,3,4-thiadiazol-2-yl)-5-(2-phenylpyrrolidin-1-yl)-1,3,4-oxadiazole-2-carboxamide], the IC50 is 500 to 1000 nM.
